Data from patent US20260102407A1, “TREATMENT METHODS” (priority 2020, published 2026).
In brackets after ≈: the same amount, converted by molar mass. Entries after “also recorded” stand apart in the source; their conditions may differ.

Legend:
HMEC-1 = assay: Endothelial network formation assay on Matrigel; format: cell-based, human
Method: Endothelial network formation assay. HMEC-1 (4×10^4 cells/well) in MCDB131 containing 1% FBS and compound (1 or 3 μM) or curcumin (1-40 μM) and 50 ng/ml FGF-2 were added to 96-well plates coated overnight at 4° C. with 100 μl of growth factor-reduced reconstituted basement membrane matrix (Matrigel, cat. 354230, Corning, NY). Network formation was observed over subsequent hours and photographed under 4× or 10× objective using an Olympus CKX41 microscope.

[1] = target: T1, Recombinant human His-MEK2 (Homo sapiens, UniProt P36507); assay: SPR (Biacore T200) on immobilised His-MEK2; format: binding; settings: 15° C.; 20 mM HEPES, 150 mM NaCl, 5% DMSO pH 7.4
T1 construct: purchased ThermoFisher Scientific PV3615
T1 sequence (P36507 whole entry): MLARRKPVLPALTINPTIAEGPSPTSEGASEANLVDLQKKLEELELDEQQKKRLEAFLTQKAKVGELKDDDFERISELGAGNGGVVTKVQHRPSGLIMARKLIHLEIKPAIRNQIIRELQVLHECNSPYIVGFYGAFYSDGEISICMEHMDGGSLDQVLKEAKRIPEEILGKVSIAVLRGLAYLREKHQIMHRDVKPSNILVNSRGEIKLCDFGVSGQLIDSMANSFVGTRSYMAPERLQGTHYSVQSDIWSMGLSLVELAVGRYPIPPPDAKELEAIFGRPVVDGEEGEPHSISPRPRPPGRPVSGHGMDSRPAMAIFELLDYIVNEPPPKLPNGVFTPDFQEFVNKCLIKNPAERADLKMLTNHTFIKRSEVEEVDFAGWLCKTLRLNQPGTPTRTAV
Method: (§1) SPR. SPR was performed on a Biacore T200. The active and reference flow cells of a Xantec NIHMC Ni sensor chip were conditioned with 0.5M NaEDTA followed by 5 mM NiCl2 in immobilisation buffer (20 mM HEPES, 150 mM NaCl, pH 7.4). Recombinant human His-MEK1 and His-MEK2 (500 nM, ThermoFisher Scientific, cat. PV3303 and PV3615, respectively) were injected for 15 min at 10 μl min^−1 over separate active flow cells. All immobilisation was carried out at 25° C. Following immobilisation, the temperature was lowered to 15° C., and the buffer changed to 20 mM HEPES, 150 mM NaCl, 5% DMSO pH 7.4. Samples of PD98059 (2.5-30 μM in running buffer) and BT2 (1.25-15 μM) were injected at a flow rate of 30 μl min^−1 over immobilised MEK1 and MEK2. Solvent correction was applied to the data using a DMSO standard curve. Data were analysed using the Biacore T200 Evaluation software. Prior to SPR, limits of compound solubility were determined using ^1H 1D NMR.

[2] = target: T2, Recombinant human His-MEK1 (Homo sapiens, UniProt Q02750); assay: SPR (Biacore T200) on immobilised His-MEK1; format: binding; settings: 15° C.; 20 mM HEPES, 150 mM NaCl, 5% DMSO pH 7.4
T2 construct: purchased ThermoFisher Scientific PV3303
T2 sequence (Q02750 whole entry): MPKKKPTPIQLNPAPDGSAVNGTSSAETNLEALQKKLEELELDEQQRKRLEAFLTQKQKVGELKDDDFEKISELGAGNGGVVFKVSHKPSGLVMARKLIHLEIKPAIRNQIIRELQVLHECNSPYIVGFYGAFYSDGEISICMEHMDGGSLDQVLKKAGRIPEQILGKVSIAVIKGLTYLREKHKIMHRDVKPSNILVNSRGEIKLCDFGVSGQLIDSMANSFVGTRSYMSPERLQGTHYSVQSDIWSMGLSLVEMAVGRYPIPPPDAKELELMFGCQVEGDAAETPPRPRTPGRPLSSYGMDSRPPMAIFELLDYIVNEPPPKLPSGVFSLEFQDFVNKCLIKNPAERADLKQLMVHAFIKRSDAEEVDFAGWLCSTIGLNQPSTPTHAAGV
Method: as §1

ERK phosphorylation = assay: Western blot, IL-1β-inducible ERK phosphorylation in HMEC-1; format: cell-based, human; settings: 20 ng/ml IL-1β 15 min
Method: Western blot analysis with extracts of cells treated with […]. HMEC-1 (80-90% confluency) were arrested in serum-free MCDB131 medium (Invitrogen, MD) without any growth factor for 48 h. Cells were treated with 30 μM compound in serum-free medium for 4 h, and incubated with 20 ng/ml IL-1β (Sigma, cat. SRE3083) in serum-free medium with the same concentration of compound for up to 4 h, unless otherwise indicated. Total protein was harvested as previously described using RIPA buffer with protease inhibitors. Proteins were resolved on 4-20% (w/v) SDS-polyacrylamide gradient gels and transferred to Immobilon-P PVDF membranes. Membranes were blocked with 5% skim milk and incubated with rabbit monoclonal FosB (cat. 2251S, 1:1000, Cell Signaling, USA), rabbit monoclonal VCAM-1 (cat. 13662S, 1:1000, Cell Signaling, USA), rabbit monoclonal p44/42 MAPK (cat. 4695S, 1:1000, Cell Signaling, USA), rabbit polyclonal p38 MAPK (cat. 9212S, 1:1000, Cell Signaling, USA), rabbit polyclonal SAPK/JNK (cat. 9252S, 1:1000, Cell Signaling, USA), rabbit monoclonal phospho-SAPK/JNK (cat. 4671S, 1:1000, Cell Signaling, USA), rabbit monoclonal phospho-p38 MAPK (cat. 4511S, 1:1000, Cell Signaling, USA), or, mouse monoclonal phospho-p44/42 MAPK antibodies (cat. 9106S, 1:2000, Cell Signaling, USA) at 4° C. overnight or mouse monoclonal β-actin antibodies (cat. A5316, 1:10000, Sigma-Aldrich) antibodies at 22° C. for 1 h. Membranes were then incubated with horseradish peroxidase conjugated secondary goat anti-rabbit (cat. P0448, 1:1000, DAKO Cytomation, Denmark) or goat anti-mouse (cat. P0447, 1:1000, DAKO Cytomation, Denmark) antibodies for 1 h. Chemiluminescence was detected using the Western Lightning Chemiluminescence system and ImageQuant™ LAS 4000 biomolecular imager. Band intensity in images generated with the LAS 4000 using the same settings were quantified by NIH ImageJ.

[3] = Limit of compound solubility by 1H 1D NMR; format: physicochemical; settings: 1H 1D NMR spectroscopy
Method: as §1

## CCN1C(=O)c2cc(NC(=O)OCC(C)C)ccc2Oc2ccccc21 [BT2-IC, isobutyl (10-ethyl-11-oxo-10,11-dihydrodibenzo[b,f][1,4]oxazepin-2-yl)carbamate]
HMEC-1; 1 μM
  inhibition of network formation on Matrigel (FIG. 5B): not at 1 μM
HMEC-1; 3 μM
  inhibition of network formation on Matrigel (FIG. 13B): some inhibition of network formation at higher concentrations; also recorded: inhibited both ERK phosphorylation (FIG. 13A) and network formation (FIG. 13B) at 3 μM (albeit less potently than BT2)
[1]
  binding to His-MEK2 (SPR): but not MEK2
[2]
  binding to His-MEK1 (SPR): some interaction with MEK1
ERK phosphorylation; 1 μM
  IL-1β-inducible ERK phosphorylation (FIG. 5D): not at 1 μM
ERK phosphorylation; 3 μM
  IL-1β-inducible ERK phosphorylation (FIG. 13A): inhibited both ERK phosphorylation (FIG. 13A) and network formation (FIG. 13B) at 3 μM (albeit less potently than BT2)
[3]
  solubility: 8 ± 2 µM (≈ 2.84 µg/mL)
